The text below walks through data of patent US20100009970A1, “COMPOSITIONS AND METHODS FOR TREATMENT OF VIRAL DISEASES” (Combinatorx (Singapore) Pte. Ltd., priority 2008, published 2010).

As usually defined, the IC50 is the concentration that inhibits the measured activity by half. The term IC25 denotes the concentration needed for an effect of 25%.

For the test, the system named is Huh7 cells expressing a subgenomic RNA replicon of Con1 (genotype 1b) sequence origin. As to the kind of experiment: microbe, parasite or virus in culture. The settings on record: Hepatitis C virus.

Counter-ions that a name gives are not always drawn. Like-named read-outs stand apart in the source and are kept apart here.

In turn, `CC(C)(C)NC(=O)NC(C(=O)N1C[C@H]2[C@@H]([C@H]1C(=O)NC(CC1CCC1)C(=O)C(N)=O)C2(C)C)C(C)(C)C` (some centres unmarked) [Boceprevir (SCH 503034), Boceprevir, reference compound] came in with an IC50 (Huh-7) of 0.259 µM.

Regarding `N=C(NCc1ccccc1)NC(=O)c1nc(Cl)c(N)nc1N` [Benzamil (e.g., HCl), benzamil, reference compound], half-maximal inhibition (Huh-7) (IC50) was put at 4.73 µM.

With `CN(C)C(=S)SSC(=S)N(C)C` [Thiram, thiram], the IC50 (Huh-7) worked out at 3.64 µM.

Under “Huh-7”, `CN1C[C@H](C(=O)N[C@]2(C)O[C@@]3(O)[C@@H]4CCCN4C(=O)[C@H](Cc4ccccc4)N3C2=O)C[C@@H]2c3cccc4[nH]cc(c34)C[C@H]21` [Dihydroergotamine (e.g., mesylate), dihydroergotamine, reference compound] showed an IC50 of 22.8 µM.

As to `O=C1CC(=O)c2c(Cl)c(Cl)c(Cl)c(Cl)c21` [UCH-L3 inhibitor, 4,5,6,7-Tetrachloroindan-1,3-dione, reference compound], for the setting “GETYPE1B, Huh-7, read-out: IC25 (values noted with an asterisk)”, the IC25 was determined as 19.7 µM.

Turning to `Oc1ccc(-c2nc(-c3ccc(F)cc3)c(-c3ccncc3)[nH]2)cc1` [SB-202190, reference compound], the IC50 (Huh-7) came out at 5.18 µM.

For `Cc1c(O)cccc1C(=O)N[C@@H](CSc1ccccc1)[C@H](O)CN1C[C@H]2CCCC[C@H]2C[C@H]1C(=O)NC(C)(C)C` [Nelfinavir (e.g., mesylate), nelfinavir, reference compound], the midpoint of inhibition (Huh-7), the IC50, lay at 4.25 µM.

`CO[C@H]1/C=C/O[C@@]2(C)Oc3c(C)c(O)c4c(O)c(c5c(nc6cc(C)ccn65)c4c3C2=O)NC(=O)/C(C)=C\C=C\[C@H](C)[C@H](O)[C@@H](C)[C@@H](O)[C@@H](C)[C@H](OC(C)=O)[C@@H]1C` [Rifaximin, reference compound] showed an IC50 (Huh-7) of 19.4 µM.

As for `CC1=C(O)C(=O)C=C2C1=CC=C1[C@@]2(C)CC[C@@]2(C)[C@@H]3C[C@](C)(C(=O)O)CC[C@]3(C)CC[C@]12C` [Celastrol, reference compound], the IC50 (Huh-7) amounted to 0.449 µM.

In the case of `Nc1ncnc2c1ncn2[C@@H]1O[C@H](CO)[C@@H](O)[C@@H]1O` [Vidarabine, vidarabine, reference compound], the IC50 (Huh-7) came to 26.7 µM.

`C#C[C@]1(O)CC[C@H]2[C@@H]3CCc4cc(OC5CCCC5)ccc4[C@H]3CC[C@@]21C` [Quinestrol, reference compound] had an IC50 (Huh-7) of 5.43 µM.

Take `C[C@]12CC[C@@H]3c4ccc(O)cc4C[C@@H](CCCCCCCCC[S+]([O-])CCCC(F)(F)C(F)(F)F)[C@H]3[C@@H]1CC[C@@H]2O` (some centres unmarked) [Fulvestrant, reference compound]: under “Huh-7”, the IC50 was determined as 3.05 µM.

`O=C(c1ccc(OCCN2CCCCC2)cc1)c1c(-c2ccc(O)cc2)sc2cc(O)ccc12` [Raloxifene (e.g., hydrochloride), Raloxifene, reference compound] came in with an IC50 (Huh-7) of 3.74 µM.

Molecule `CN1CCCC(n2nc(Cc3ccc(Cl)cc3)c3ccccc3c2=O)CC1` (centres unmarked) [Azelastine, azelastine, reference compound] gave an IC50 (Huh-7) of 6.22 µM.

As for `C[C@@]1(CO)[C@H](O)CC[C@@]2(C)[C@H]1CC[C@H]1C[C@@H]3C[C@@]12CC[C@]3(O)CO` [Aphidicolin, aphidicolin, reference compound], where the note is “Huh-7”, 1.71 µM corresponded to half-maximal inhibition (IC50).

Molecule `CCN(CC)CCO[C@H]1CC[C@@]2(C)C(=CC[C@@H]3[C@@H]2CC[C@]2(C)C(=O)CC[C@@H]32)C1` [Example U18666A, reference compound] came in with an IC50 (Huh-7) of 0.02 µM.

`O=C(CCCCCCC(=O)NO)NO` [Suberohydroxamic acid, suberohydroxamic acid, reference compound] registered an IC50 (Huh-7) of 4.02 µM.

`CCN(CCCCOC(=O)c1ccc(OC)c(OC)c1)C(C)Cc1ccc(OC)cc1` (centres unmarked) [Mebeverine (e.g., hydrochloride), Mebeverine, reference compound]: the IC50 (Huh-7) came out at 14.9 µM.

For `N=c1ccn2c(n1)O[C@H]1[C@H](O)[C@@H](CO)O[C@H]12` [Cyclocytidine (e.g., hydrochloride), Cyclocytidine, reference compound], the IC50 (Huh-7) came to 0.183 µM.

For the setting “Huh-7”, `Nc1ccccc1OCCCCCOc1ccccc1N` [2,2′-(Pentamethylenedioxy)dianiline, reference compound] showed a 50% inhibitory concentration (IC50) of 0.27 µM.

In the case of `CC[C@@]1(O)C(=O)OCc2c1cc1n(c2=O)Cc2cc3ccccc3nc2-1` [Camptothecin, camptothecin, reference compound], the IC50 (Huh-7) worked out at 0.026 µM.

In turn, `CC(C)c1nc(CN(C)C(=O)N[C@H](C(=O)N[C@@H](Cc2ccccc2)C[C@H](O)[C@H](Cc2ccccc2)NC(=O)OCc2cncs2)C(C)C)cs1` [Ritonavir, reference compound] registered an IC50 (Huh-7) of 14.9 µM.

In the case of `COc1cc2c(cc1OC)-c1c/c(=N\c3c(C)cc(C)cc3C)n(C)c(=O)n1CC2` [Trequinsin (e.g., hydrochloride), Trequinsin, reference compound], under “Huh-7”, the IC50 was 2.93 µM.

With `COC1=CC(=O)C[C@@H](C)[C@]12Oc1c(Cl)c(OC)cc(OC)c1C2=O` [Griseofulvin (e.g., microcrystalline), Griseofulvin, reference compound], the midpoint of inhibition (Huh-7), the IC50, lay at 11.5 µM.

Take `CCCCC1C(=O)NN(c2ccccc2)C1=O` (centres unmarked) [Mofebutazone, mofebutazone, reference compound]: the IC50 (Huh-7) stood at 14.6 µM.

Where the note is “Huh-7”, `CCN(CC)CCOCCOC(=O)C(CC)(CC)c1ccccc1` [Oxeladin, reference compound] yielded an IC50 of 8.72 µM.

Under “Huh-7”, `COC[C@H]1OC(=O)c2coc3c2[C@@]1(C)C1=C(C3=O)[C@@H]2CCC(=O)[C@@]2(C)C[C@H]1OC(C)=O` [Wortmannin, wortmannin, reference compound] returned an IC50 of 3.16 µM.

In turn, `N[C@@H](Cc1cc(I)c(Oc2cc(I)c(O)c(I)c2)c(I)c1)C(=O)O` [Levothyroxine (e.g., sodium), Levothyroxine, reference compound] had an IC50 (Huh-7) of 3.79 µM.

In the case of `COc1cccc(Oc2ccc(Br)cc2CN(C)C)c1` [Compound 38, (5-bromo-2-(3-methoxyphenoxy)phenyl)-N,N-dimethylmethanamine], the Emax (Huh-7, read-out: Max Effect@CC30 (inhibition)) came out at 42%.

Consider `CC(C)n1c(/C=C/C(O)CC(O)CC(=O)O)c(-c2ccc(F)cc2)c2ccccc21` (centres unmarked) [Fluvastatin (e.g., sodium), fluvastatin, reference compound], for which, for the setting “Huh-7”, the IC50 is 22.2 µM.

As for `COc1cc(C(=O)NS(=O)(=O)c2ccccc2C)ccc1Cc1cn(C)c2ccc(NC(=O)OC3CCCC3)cc12` [Zafirlukast, reference compound], the IC50 by setting is: (Huh-7) 18.5 µM; (Huh-7, read-out: IC50 in our hands) 18.5 µM.

Under “Huh-7”, `CC(C(O)c1ccc(O)cc1)N1CCC(Cc2ccccc2)CC1` (centres unmarked) [Ifenprodil (e.g., tartrate), Ifenprodil, reference compound] yielded a half-maximal inhibitory concentration (IC50) of 4.68 µM.

Regarding `C/C=C/C/C=C/CCC(=O)[C@H]1O[C@H]1C(N)=O` [Cerulenin, reference compound], for the setting “Huh-7”, 16.2 µM corresponded to half-maximal inhibition (IC50).

In turn, `CN1CCN(CCCN2c3ccccc3Sc3ccc(C(F)(F)F)cc32)CC1` [Trifluoperazine (e.g., hydrochloride), Trifluoperazine, reference compound] gave an IC50 (Huh-7) of 4.97 µM.

`Cc1cccc(CN2CCN(C(c3ccccc3)c3ccc(Cl)cc3)CC2)c1` (centres unmarked) [Meclizine, meclizine, reference compound] registered an IC50 (Huh-7) of 14.6 µM.

`Oc1cc(O)cc(/C=C/c2ccc(O)c(O)c2)c1` [Piceatannol, reference compound] showed a half-maximal inhibitory concentration (IC50) (Huh-7) of 5.47 µM.

With `C/C=C(/C)C(=O)O[C@H]1C(C)=C2[C@H]([C@@H]1OC(=O)CCCCCCC)[C@@](C)(OC(C)=O)C[C@H](OC(=O)CCC)[C@@]1(O)[C@H]2OC(=O)[C@@]1(C)O` [Thapsigargin, reference compound], the IC50 (Huh-7) was 0.0113 µM.

`O=C(O)Cc1cc(I)c(Oc2ccc(O)c(I)c2)c(I)c1` [Tiratricol, reference compound] displayed an IC50 (Huh-7) of 15.6 µM.

For the setting “Huh-7”, `O=C1C(CC[C@@H](O)c2ccc(F)cc2)[C@@H](c2ccc(O)cc2)N1c1ccc(F)cc1` (some centres unmarked) [Ezetimibe, ezitamibe, reference compound] showed an IC50 of 4.2 µM.

`CCCOc1ccc2nc(NC(=O)OC)[nH]c2c1` [Oxibendazole, reference compound]: the IC50 (Huh-7) was found to be 0.3 µM.

Take `O=C1c2ccccc2-[n+]2ccc3c([nH]c4ccccc43)c21` [Fascaplysin, reference compound]: for the setting “Huh-7”, the IC50 was found to be 0.444 µM.

`C/C=C(/C(=C/C)c1ccc(O)cc1)c1ccc(O)cc1` [Dienestrol, reference compound]: where the note is “Huh-7”, the IC50 stood at 16.5 µM.

In turn, `CC(C)[C@H](N)C(=O)O[C@@H]1[C@@H](CO)O[C@@H](n2ccc(N)nc2=O)[C@]1(C)O` [Valopicitabine (NM-283), Valopicitabine, reference compound] displayed a concentration for half-maximal inhibition (IC50) (Huh-7) of 11.2 µM.

Molecule `CC(C)C[C@H]1C(=O)N2CCC[C@H]2[C@]2(O)O[C@](NC(=O)[C@@H]3C=C4c5cccc6[nH]c(Br)c(c56)C[C@H]4N(C)C3)(C(C)C)C(=O)N12` [Bromocriptine (e.g., mesylate), bromocriptine, reference compound] returned an IC50 (Huh-7) of 3.38 µM.

`CCC(C)(C)c1ccc(CC(C)CN2C[C@@H](C)O[C@@H](C)C2)cc1` (some centres unmarked) [Amorolfine (e.g., hydrochloride), amorolfine, reference compound] came in with an IC50 (Huh-7) of 1.62 µM.

For the setting “Huh-7”, `CC[C@@H](C(=O)O)[C@@H]1O[C@@H]([C@@H](C)[C@H](O)[C@H](C)C(=O)[C@H](CC)[C@H]2O[C@]3(C=C[C@@H](O)[C@]4(CC[C@@](C)([C@H]5CC[C@](O)(CC)[C@H](C)O5)O4)O3)[C@H](C)C[C@@H]2C)[C@@H](C)C[C@@H]1C` [Narasin, reference compound] had an IC50 of 0.176 µM.

Under “Huh-7”, `CCCCOc1cc(C(=O)NCCN(CC)CC)c2ccccc2n1` [Dibucaine (e.g., hydrochloride), Dibucaine, reference compound] yielded an IC50 of 6.68 µM.

In turn, `Nc1n[n+]([O-])c2ccccc2[n+]1[O-]` [Tirapazamine, reference compound] yielded an IC50 (Huh-7) of 1.83 µM.

`CC(=O)Oc1ccccc1C(=O)Nc1ncc([N+](=O)[O-])s1` [Nitazoxanide, nitazoxanide, reference compound] displayed an IC50 (Huh-7) of 14 µM.
